We go through one molecule from US9714244B2, “Substituted pyrido[4,3-d]pyrimidines as Wee-1 inhibitors” (ALMAC DISCOVERY LIMITED, priority 2013, dated 2017).

Test [1] addresses Wee-1 kinase (Homo sapiens (Human), UniProt P30291). Put plainly: Measurement of Wee-1 kinase activity (ADP-Glo). Particulars: read-out: Wee-1 IC50 activity. The class given is biochemical.
Test [2] has as its target MAP4K4 (HGK) (Homo sapiens (Human), UniProt O95819). Put plainly: SelectScreen Kinase Profiling: MAP4K4. The class given is biochemical. Particulars: 300-350 nM. An excerpt: Table 2 below highlights the selectivity of a representative compound of the invention against a panel of 50 kinases (assessed using the Invitrogen SelectScreen® Kinase Profiling Service).

Wee-1 kinase, sequence (P30291 whole entry): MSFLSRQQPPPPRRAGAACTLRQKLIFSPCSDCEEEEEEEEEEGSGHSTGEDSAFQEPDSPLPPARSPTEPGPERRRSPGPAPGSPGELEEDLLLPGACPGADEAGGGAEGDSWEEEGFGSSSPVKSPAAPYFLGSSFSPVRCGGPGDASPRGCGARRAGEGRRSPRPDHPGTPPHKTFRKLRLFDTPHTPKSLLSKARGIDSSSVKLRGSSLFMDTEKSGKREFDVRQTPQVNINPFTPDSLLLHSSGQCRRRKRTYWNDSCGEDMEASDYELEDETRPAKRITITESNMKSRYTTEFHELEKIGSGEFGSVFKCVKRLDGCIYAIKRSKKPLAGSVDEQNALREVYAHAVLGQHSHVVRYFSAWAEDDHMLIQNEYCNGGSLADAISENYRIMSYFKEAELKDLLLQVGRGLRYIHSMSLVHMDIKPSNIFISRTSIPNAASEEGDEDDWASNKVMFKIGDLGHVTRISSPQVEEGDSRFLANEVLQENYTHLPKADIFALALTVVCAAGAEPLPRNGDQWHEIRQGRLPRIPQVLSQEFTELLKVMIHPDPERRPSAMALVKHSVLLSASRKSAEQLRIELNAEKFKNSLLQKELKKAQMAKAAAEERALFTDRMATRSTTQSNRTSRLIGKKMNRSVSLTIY
MAP4K4 (HGK), sequence (O95819 whole entry): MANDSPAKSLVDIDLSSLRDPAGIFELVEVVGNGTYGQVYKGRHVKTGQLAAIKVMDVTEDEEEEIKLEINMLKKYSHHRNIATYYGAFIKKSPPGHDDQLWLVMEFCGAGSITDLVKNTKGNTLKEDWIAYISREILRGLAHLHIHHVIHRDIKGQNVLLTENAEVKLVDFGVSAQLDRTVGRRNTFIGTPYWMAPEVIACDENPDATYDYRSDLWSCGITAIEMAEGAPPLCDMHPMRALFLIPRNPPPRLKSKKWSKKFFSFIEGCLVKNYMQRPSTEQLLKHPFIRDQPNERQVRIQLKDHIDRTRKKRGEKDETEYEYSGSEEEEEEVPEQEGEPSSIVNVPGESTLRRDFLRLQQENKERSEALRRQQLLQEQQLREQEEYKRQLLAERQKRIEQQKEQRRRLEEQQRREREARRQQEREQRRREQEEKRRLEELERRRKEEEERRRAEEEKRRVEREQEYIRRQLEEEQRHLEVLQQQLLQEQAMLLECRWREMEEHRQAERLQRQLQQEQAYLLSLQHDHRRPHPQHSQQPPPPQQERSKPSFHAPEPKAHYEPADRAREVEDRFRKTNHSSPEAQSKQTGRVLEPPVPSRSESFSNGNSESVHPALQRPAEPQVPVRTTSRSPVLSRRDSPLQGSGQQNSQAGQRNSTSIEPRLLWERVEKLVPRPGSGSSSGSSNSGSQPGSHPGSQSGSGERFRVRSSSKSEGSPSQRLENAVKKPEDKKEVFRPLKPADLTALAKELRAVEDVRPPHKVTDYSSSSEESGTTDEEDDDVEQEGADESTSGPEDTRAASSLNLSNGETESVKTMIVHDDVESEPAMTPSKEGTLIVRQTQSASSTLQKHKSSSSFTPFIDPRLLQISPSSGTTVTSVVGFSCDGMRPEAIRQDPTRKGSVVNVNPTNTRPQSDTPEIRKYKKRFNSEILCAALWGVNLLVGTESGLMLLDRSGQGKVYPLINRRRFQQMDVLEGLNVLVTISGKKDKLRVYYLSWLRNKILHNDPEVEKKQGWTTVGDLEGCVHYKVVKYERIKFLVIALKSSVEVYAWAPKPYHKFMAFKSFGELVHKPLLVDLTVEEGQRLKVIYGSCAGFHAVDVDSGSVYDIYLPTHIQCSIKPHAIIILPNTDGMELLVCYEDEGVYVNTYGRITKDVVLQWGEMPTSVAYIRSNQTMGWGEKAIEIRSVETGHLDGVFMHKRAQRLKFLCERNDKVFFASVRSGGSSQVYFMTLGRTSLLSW

One may read the IC50 as the concentration at which inhibition is half-maximal. For `O=c1c2cnc(Nc3ccc(N4CCNCC4)cc3)nc2ccn1-c1c(Cl)cccc1Cl` [Example 1, 6-(2,6-Dichlorophenyl)-2-((4-(piperazin-1-yl)phenyl)amino)pyrido[4,3-d]pyrimidin-5(6H)-one], the IC50 in test [1] lay within 10 to 200 nM. Further, the “Inhibition MAP4K4 (HGK)” value in test [2] is “− (Inhibition <75% @ 300-350 nM)”.
